Data set [1] in a line: Evaluation of thermal stability of aqueous solution (residual ratio of galactosylkojibiose after heat treatment, HPLC). It counts as physicochemical. The following applies: for change of galactosylkojibiose HPLC peak after heat treatment: 120° C. for 20 minutes, 12 wt % solution in buffer. As to the method: Buffers having various pH values (100 mM citrate-phosphate buffer for pH 3 to 6 and 100 mM phosphate buffer for pH 6 to 8) were used to dissolve the purified and fractionated galactosylkojibiose obtained in Example 3 so that the resulting solutions should have 12° Bx (12 wt %). The solutions were subjected to a heat treatment at 60° C., 80° C., 100° C., and 120° C. for 20 minutes by using an autoclave, and then residual ratio of galactosylkojibiose was evaluated.
The residual ratio was calculated from the results obtained by using HPLC method performed under the following conditions. • Column: SUPELCO apHera™ NH2 HPLC Column • Mobile phase: 68% acetonitrile • Column temperature: 35° C. • Flow rate: 1.0 mL/min • Detection: RI

A further data set deals with Parabacteroides bacteria. The data set is described as follows: Promotion of growth of Parabacteroides bacteria in the intestinal microbiota. As to conditions: studies of the inventors, no method given.
The next data set has as its system Bifidobacterium bacteria. The data set can be described thus: Promotion of growth of Bifidobacterium bacteria in the intestinal microbiota. The following applies: studies of the inventors, no method given.

Take `OCC1O[C@H](OC2C(O)[C@H](O[C@@H]3OC(CO)[C@H](O)C(O)C3O)C(CO)O[C@H]2O)C(O)C(O)[C@@H]1O` (stereo partly drawn) [galactosylkojibiose, α-D-glucopyranosyl-(1→2)-[β-D-galactopyranosyl-(1→4)-]D-glucopyranoside]: the “decay of galactosylkojibiose after heat treatment” value in data set [1] (60° C. for 20 minutes, any pH value (pH 3 to 8)) is listed as “not observed”. In addition, the “change of galactosylkojibiose HPLC peak after heat treatment” value in data set [1] (pH 6 or lower) is on record as “no significant change”; in data set [1] (pH 7 or higher, new peak at around 12.1 minutes), “decay of the chromatographic peak”. In addition, the “growth of Parabacteroides bacteria in the intestinal microbiota” value with Parabacteroides bacteria was “promote the growth”. For the same compound, the “growth of Bifidobacterium bacteria in the intestinal microbiota” value with Bifidobacterium bacteria is recorded as “promote the growth”.
For the compound `OCC1O[C@H](OC2[C@H](O)OC(CO)[C@@H](O)[C@@H]2O)C(O)[C@@H](O)[C@@H]1O` (stereo partly shown) [kojibiose], the “growth of Parabacteroides bacteria in the intestinal microbiota” value with Parabacteroides bacteria was “promote the growth”. Also, the “growth of Bifidobacterium bacteria in the intestinal microbiota” value in the data set with Bifidobacterium bacteria was “promote the growth”.
